In ChEMBL document CHEMBL1143364, “Preliminary evaluation of pharmacological properties of some xanthone derivatives” (Bioorg Med Chem, 2009):
The source made the active and inactive calls. The rule behind the calls is not given here.

Tests used:
Rattus norvegicus [1] = assay: Antiarrhythmic activity in anaesthetized iv dosed Wistar rat assessed as decrease in adrenaline-induced cardiac rhythm disturbance administered 15 mins before adrenaline challenge; type: functional; conditions: Heart
Rattus norvegicus [2] = assay: Hypotensive activity in normotensive Wistar rat assessed as reduction in blood pressure at 10 mg/kg, iv after 60 mins; type: functional, organism-based; set-up: dose 10 mg/kg
[3] = molecular target: T1, Adrenergic receptor alpha-1 (Rattus norvegicus, UniProt P15823+P23944+P43140); assay: Displacement of [3H]prazosin from alpha1 adrenergic receptor in rat cerebral cortex by liquid scintillation counting; type: tissue-based
T1 sequence (P15823 whole entry): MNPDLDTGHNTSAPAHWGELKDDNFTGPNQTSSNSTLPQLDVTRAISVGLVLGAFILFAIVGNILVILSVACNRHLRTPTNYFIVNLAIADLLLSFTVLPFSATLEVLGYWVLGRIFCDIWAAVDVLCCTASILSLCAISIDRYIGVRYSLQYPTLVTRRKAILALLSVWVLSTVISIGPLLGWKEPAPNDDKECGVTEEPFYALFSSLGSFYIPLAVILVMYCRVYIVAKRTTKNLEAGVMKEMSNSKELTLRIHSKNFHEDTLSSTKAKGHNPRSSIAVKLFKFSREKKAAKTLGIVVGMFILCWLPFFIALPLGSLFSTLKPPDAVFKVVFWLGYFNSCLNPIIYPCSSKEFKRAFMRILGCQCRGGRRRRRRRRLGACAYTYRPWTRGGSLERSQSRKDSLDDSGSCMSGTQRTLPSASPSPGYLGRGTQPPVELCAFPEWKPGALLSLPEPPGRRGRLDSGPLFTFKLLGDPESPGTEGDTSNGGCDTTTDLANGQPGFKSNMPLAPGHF
T1 sequence (P23944 whole entry): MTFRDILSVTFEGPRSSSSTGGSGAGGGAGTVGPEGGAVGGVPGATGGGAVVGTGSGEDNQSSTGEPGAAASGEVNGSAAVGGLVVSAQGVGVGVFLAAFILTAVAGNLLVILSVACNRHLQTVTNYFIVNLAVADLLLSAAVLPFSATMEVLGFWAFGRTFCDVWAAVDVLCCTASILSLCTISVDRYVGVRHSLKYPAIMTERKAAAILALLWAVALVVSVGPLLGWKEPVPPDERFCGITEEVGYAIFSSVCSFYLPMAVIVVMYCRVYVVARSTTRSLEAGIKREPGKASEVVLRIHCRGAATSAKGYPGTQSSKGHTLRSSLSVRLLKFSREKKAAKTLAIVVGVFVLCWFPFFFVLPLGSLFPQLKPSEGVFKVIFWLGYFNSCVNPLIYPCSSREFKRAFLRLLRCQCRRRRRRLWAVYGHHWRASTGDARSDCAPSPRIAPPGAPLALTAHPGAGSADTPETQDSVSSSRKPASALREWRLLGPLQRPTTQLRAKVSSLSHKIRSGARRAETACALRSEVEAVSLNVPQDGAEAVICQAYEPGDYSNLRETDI
T1 sequence (P43140 whole entry): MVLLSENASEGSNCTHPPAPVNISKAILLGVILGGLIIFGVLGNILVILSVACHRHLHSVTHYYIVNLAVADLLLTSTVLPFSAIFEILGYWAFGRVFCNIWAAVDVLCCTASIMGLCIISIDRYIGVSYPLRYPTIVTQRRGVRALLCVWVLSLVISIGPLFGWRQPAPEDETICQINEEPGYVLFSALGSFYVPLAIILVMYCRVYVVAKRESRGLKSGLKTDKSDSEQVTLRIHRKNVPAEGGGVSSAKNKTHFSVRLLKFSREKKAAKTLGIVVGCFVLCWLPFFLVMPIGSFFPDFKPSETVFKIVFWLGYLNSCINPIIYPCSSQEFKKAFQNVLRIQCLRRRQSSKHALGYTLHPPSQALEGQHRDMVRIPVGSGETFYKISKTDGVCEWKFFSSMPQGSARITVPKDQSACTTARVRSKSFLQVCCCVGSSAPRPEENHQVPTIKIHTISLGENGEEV

Mus musculus [4] = assay: Anticonvulsant activity in CF1 mouse assessed as inhibition of maximal electroshock-induced seizures at 30 mg/kg, ip after 0.5 hrs; type: functional, organism-based; set-up: dose 30 mg/kg
Mus musculus [5] = assay: Anticonvulsant activity in CF1 mouse assessed as inhibition of maximal electroshock-induced seizures at 300 mg/kg, ip after 0.5 hrs; type: functional, organism-based; set-up: dose 300 mg/kg
Mus musculus [6] = assay: Anticonvulsant activity in CF1 mouse assessed as inhibition of maximal electroshock-induced seizures at 30 mg/kg, ip after 4 hrs; type: functional, organism-based; set-up: dose 30 mg/kg
Mus musculus [7] = assay: Anticonvulsant activity in CF1 mouse assessed as inhibition of maximal electroshock-induced seizures at 100 mg/kg, ip after 4 hrs; type: functional, organism-based; set-up: dose 100 mg/kg
Mus musculus [8] = assay: Anticonvulsant activity in CF1 mouse assessed as inhibition of maximal electroshock-induced seizures at 300 mg/kg, ip after 4 hrs; type: functional, organism-based; set-up: dose 300 mg/kg
Mus musculus [9] = assay: Anticonvulsant activity in CF1 mouse assessed as inhibition of subcutaneous pentylenetetrazole-induced seizures; type: functional, organism-based
Mus musculus [10] = assay: Neurotoxicity in CF1 mouse at 30 mg/kg, ip after 0.5 hrs by rotarod test; type: toxicity, organism-based; set-up: dose 30 mg/kg, route intraperitoneal; conditions: in vivo
Mus musculus [11] = assay: Neurotoxicity in CF1 mouse at 100 mg/kg, ip after 0.5 hrs by rotarod test; type: toxicity, organism-based; set-up: dose 100 mg/kg, route intraperitoneal; conditions: in vivo
Mus musculus [12] = assay: Neurotoxicity in CF1 mouse at 300 mg/kg, ip after 0.5 hrs by rotarod test; type: toxicity, organism-based; set-up: dose 300 mg/kg, route intraperitoneal; conditions: in vivo
Mus musculus [13] = assay: Neurotoxicity in CF1 mouse at 30 mg/kg, ip after 4 hrs by rotarod test; type: toxicity, organism-based; set-up: dose 30 mg/kg, route intraperitoneal; conditions: in vivo
Mus musculus [14] = assay: Neurotoxicity in CF1 mouse at 100 mg/kg, ip after 4 hrs by rotarod test; type: toxicity, organism-based; set-up: dose 100 mg/kg, route intraperitoneal; conditions: in vivo
Mus musculus [15] = assay: Neurotoxicity in CF1 mouse at 300 mg/kg, ip after 4 hrs by rotarod test; type: toxicity, organism-based; set-up: dose 300 mg/kg, route intraperitoneal; conditions: in vivo
[16] = molecular target: Beta-1 adrenergic receptor (Rattus norvegicus, UniProt P18090); assay: biochemical
Sequence of Beta-1 adrenergic receptor (P18090 whole entry): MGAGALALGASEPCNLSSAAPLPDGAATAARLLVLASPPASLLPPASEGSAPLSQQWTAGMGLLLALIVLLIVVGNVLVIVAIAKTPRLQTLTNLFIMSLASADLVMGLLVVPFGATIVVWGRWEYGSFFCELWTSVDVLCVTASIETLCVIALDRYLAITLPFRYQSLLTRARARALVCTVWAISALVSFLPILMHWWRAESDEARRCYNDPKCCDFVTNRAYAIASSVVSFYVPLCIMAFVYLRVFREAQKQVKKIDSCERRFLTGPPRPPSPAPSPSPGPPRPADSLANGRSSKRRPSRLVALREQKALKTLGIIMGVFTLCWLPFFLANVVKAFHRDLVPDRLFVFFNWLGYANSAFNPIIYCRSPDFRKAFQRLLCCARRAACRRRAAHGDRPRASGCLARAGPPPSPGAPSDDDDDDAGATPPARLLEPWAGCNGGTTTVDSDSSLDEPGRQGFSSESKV
Description: Displacement of [3H]CGP12177 from beta-1 adrenergic receptor in rat cerebral cortex by liquid scintillation counting

Rattus norvegicus [17] = assay: Cardiotoxicity in Wistar rat assessed as decrease in cardiac beats per minute at 10 mg/kg, iv by ECG; type: toxicity, organism-based, Heart; set-up: dose 10 mg/kg, route intravenous; scale not given: the % may be the effect or the level left; conditions: in vivo
Rattus norvegicus [18] = assay: Cardiotoxicity in Wistar rat assessed as prolongation of PQ interval at 10 mg/kg, iv by ECG; type: toxicity, organism-based; set-up: dose 10 mg/kg, route intravenous; conditions: in vivo
Mus musculus [19] = assay: Anticonvulsant activity in CF1 mouse assessed as inhibition of maximal electroshock-induced seizures at 100 mg/kg, ip after 0.5 hrs; type: functional, organism-based; set-up: dose 100 mg/kg
Rattus norvegicus [20] = assay: Cardiotoxicity in Wistar rat assessed as decrease in cardiac beats per minute at 5 mg/kg, iv by ECG; type: toxicity, organism-based, Heart; set-up: dose 5 mg/kg, route intravenous; scale not given: the % may be the effect or the level left; conditions: in vivo
Rattus norvegicus [21] = assay: Cardiotoxicity in Wistar rat assessed as prolongation of PQ interval at 5 mg/kg, iv by ECG; type: toxicity, organism-based; set-up: dose 5 mg/kg, route intravenous; conditions: in vivo
Rattus norvegicus [22] = assay: Hypotensive activity in normotensive Wistar rat assessed as reduction in diastolic blood pressure at 2.5 mg/kg, iv; type: functional, organism-based; set-up: dose 2.5 mg/kg; conditions: Artery
Rattus norvegicus [23] = assay: Cardiotoxicity in Wistar rat assessed as prolongation of QT interval at 10 mg/kg, iv by ECG; type: toxicity, organism-based; set-up: dose 10 mg/kg, route intravenous; conditions: in vivo
Rattus norvegicus [24] = assay: Hypotensive activity in normotensive Wistar rat assessed as reduction in systolic blood pressure at 5 mg/kg, iv; type: functional, Artery; set-up: scale not given: the % may be the effect or the level left
Rattus norvegicus [25] = assay: Hypotensive activity in normotensive Wistar rat assessed as reduction in diastolic blood pressure at 5 mg/kg, iv; type: functional, Artery; set-up: scale not given: the % may be the effect or the level left
Rattus norvegicus [26] = assay: Antiarrhythmic activity in anaesthetized Wistar rat assessed as decrease in arrhythmia-induced mortality at 1.25 mg/kg, iv administered 15 mins before adrenaline challenge; type: functional, Heart; set-up: scale not given: the % may be the effect or the level left
Rattus norvegicus [27] = assay: Hypotensive activity in normotensive Wistar rat assessed as reduction in blood pressure at 0.625 mg/kg, iv after 60 mins; type: functional, organism-based; set-up: dose 0.625 mg/kg
Rattus norvegicus [28] = assay: Hypotensive activity in normotensive Wistar rat assessed as reduction in systolic blood pressure at 1.25 mg/kg, iv; type: functional, Artery; set-up: scale not given: the % may be the effect or the level left
Rattus norvegicus [29] = assay: Hypotensive activity in normotensive Wistar rat assessed as reduction in diastolic blood pressure at 1.25 mg/kg, iv; type: functional, Artery; set-up: scale not given: the % may be the effect or the level left
Rattus norvegicus [30] = assay: Hypotensive activity in normotensive Wistar rat assessed as reduction in systolic blood pressure at 10 mg/kg, iv; type: functional; set-up: scale not given: the % may be the effect or the level left
Rattus norvegicus [31] = assay: Hypotensive activity in normotensive Wistar rat assessed as reduction in diastolic blood pressure at 10 mg/kg, iv; type: functional, Artery; set-up: scale not given: the % may be the effect or the level left

SMILES | Activity (Rattus norvegicus [1]) | Ki [3] | Activity (Mus musculus [4]) | Activity (Mus musculus [5]) | Activity (Mus musculus [6]) | Activity (Mus musculus [7]) | Activity (Mus musculus [8]) | Activity (Mus musculus [9]) | Activity (Mus musculus [10]) | Activity (Mus musculus [11]) | Activity (Mus musculus [12]) | Activity (Mus musculus [13]) | Activity (Mus musculus [14]) | Activity (Mus musculus [15]) | Ki [16] | Activity (Rattus norvegicus [17]) | Activity (Mus musculus [19]) | ED50 (Rattus norvegicus [1]) | further results
C=CCNCC(O)COc1ccc2c(=O)c3ccccc3oc2c1.Cl (stereo not drawn) | Active | 8.1 µM | inactive | Active | inactive | inactive | Active | inactive | Non-toxic | Non-toxic | Toxic | Non-toxic | Non-toxic | Non-toxic | 44.4 µM | – | – | – | Activity (Rattus norvegicus [2]): Active
CC(C)(CO)NCCCOc1cccc2c(=O)c3ccccc3oc12.Cl | Active | 8.7 µM | inactive | inactive | inactive | inactive | inactive | inactive | Non-toxic | Non-toxic | 25% | Non-toxic | Non-toxic | Non-toxic | 2.6 µM | 15% | inactive | – | Activity (Rattus norvegicus [18]): Toxic; Activity (Rattus norvegicus [2]): Active
C=CCNCCCOc1cccc2c(=O)c3ccccc3oc12.Cl | Active | 4.6 µM | inactive | – | inactive | inactive | – | inactive | Non-toxic | – | Toxic | Non-toxic | Non-toxic | – | 7.7 µM | 20% | inactive | – | Activity (Rattus norvegicus [18]): Toxic
CC(CO)(CO)NCC(O)COc1cccc2c(=O)c3ccccc3oc12.Cl (stereo not drawn) | – | 49.8 µM | inactive | inactive | inactive | inactive | inactive | inactive | Non-toxic | Non-toxic | 25% | Non-toxic | Non-toxic | Non-toxic | 0.004 µM | – | inactive | 1.75 mg/kg | Activity (Rattus norvegicus [20]): 13%; Activity (Rattus norvegicus [21]): Toxic; Activity (Rattus norvegicus [22]): inactive
C=CCNCC(O)COc1cccc2c(=O)c3ccccc3oc12.Cl (stereo not drawn) | Active | 7.3 µM | inactive | inactive | inactive | inactive | inactive | inactive | – | – | 50% | Non-toxic | Non-toxic | Non-toxic | 0.084 µM | 24% | inactive | – | Activity (Rattus norvegicus [23]): 17%; Activity (Rattus norvegicus [24]): 9%; Activity (Rattus norvegicus [25]): 11%
CC(C)(CO)NCC(O)COc1cccc2c(=O)c3ccc(Cl)cc3oc12.Cl (stereo not drawn) | – | 5.6 µM | inactive | inactive | inactive | inactive | inactive | inactive | – | – | Toxic | Non-toxic | – | Toxic | 0.011 µM | 30% | inactive | 2.46 mg/kg | Activity (Rattus norvegicus [23]): 13%; Activity (Rattus norvegicus [26]): 60%; Activity (Rattus norvegicus [27]): Active; Activity (Rattus norvegicus [28]): 17%; Activity (Rattus norvegicus [29]): 19%
CC(C)NCC(O)COc1cccc2ccccc12 (stereo not drawn) [PROPRANOLOL] | – | – | – | – | – | – | – | – | – | – | – | – | – | – | – | – | – | 1.05 mg/kg | –
CC(CO)(CO)NCC(O)COc1cccc2c(=O)c3ccc(Cl)cc3oc12.Cl (stereo not drawn) | Active | 20.6 µM | inactive | inactive | inactive | inactive | inactive | inactive | Non-toxic | Non-toxic | Non-toxic | – | Non-toxic | – | 0.047 µM | – | inactive | – | Activity (Rattus norvegicus [20]): 21%; Activity (Rattus norvegicus [22]): inactive
C=CCNCC(O)COc1ccc2oc3ccccc3c(=O)c2c1.Cl (stereo not drawn) | Active | 4.9 µM | inactive | Active | inactive | inactive | Active | inactive | Non-toxic | Non-toxic | Toxic | Non-toxic | Non-toxic | – | 30.9 µM | – | – | – | Activity (Rattus norvegicus [30]): 10%; Activity (Rattus norvegicus [31]): 11%
